According to ChEMBL document CHEMBL5724914, “Linking interpersonal differences in gut microbiota composition and drug biotransformation activity” (2024):

Legend:
[1] = The drug is tested on Z-025 corresponding to rabbit gut metagenome with ENA study accession number: PRJEB37062 and ENA sample accession number: ERS12561824 for biotransformation under anaerobic condition. The drug concentrations were measured over 9 timepoints collected between 0 and 24 hours of incubation by liquid-chromatography-coupled mass spectrometry (LC–MS); conditions: 2 µM
[2] = The drug is tested on Z-024 corresponding to pig gut metagenome with ENA study accession number: PRJEB37062 and ENA sample accession number: ERS12561823 for biotransformation under anaerobic condition. The drug concentrations were measured over 9 timepoints collected between 0 and 24 hours of incubation by liquid-chromatography-coupled mass spectrometry (LC–MS); conditions: 2 µM
[3] = The drug is tested on Z-013 corresponding to rabbit gut metagenome with ENA study accession number: PRJEB37062 and ENA sample accession number: ERS12561813 for biotransformation under anaerobic condition. The drug concentrations were measured over 9 timepoints collected between 0 and 24 hours of incubation by liquid-chromatography-coupled mass spectrometry (LC–MS); conditions: 2 µM
[4] = The drug is tested on Z-011 corresponding to mouse gut metagenome with ENA study accession number: PRJEB37062 and ENA sample accession number: ERS12561811 for biotransformation under anaerobic condition. The drug concentrations were measured over 9 timepoints collected between 0 and 24 hours of incubation by liquid-chromatography-coupled mass spectrometry (LC–MS); conditions: 2 µM
[5] = The drug is tested on Z-004 corresponding to metagenome with ENA study accession number: PRJEB37062 and ENA sample accession number: ERS12561804 for biotransformation under anaerobic condition. The drug concentrations were measured over 9 timepoints collected between 0 and 24 hours of incubation by liquid-chromatography-coupled mass spectrometry (LC–MS); conditions: 2 µM
[6] = The drug is tested on WLS-052 corresponding to human gut metagenome with ENA study accession number: PRJEB37062 and ENA sample accession number: ERS12561747 for biotransformation under anaerobic condition. The drug concentrations were measured over 9 timepoints collected between 0 and 24 hours of incubation by liquid-chromatography-coupled mass spectrometry (LC–MS); conditions: 2 µM
[7] = human gut metagenome, 24 h, 2 µM
[8] = human gut metagenome, 24 h, 2 µM; remark: listed apart in the source
[9] = human gut metagenome, 24 h, 2 µM; remark: listed apart in the source
Note: call rule not given here.

| Structure (SMILES) | Bacterial Biotransformation [1] | Bacterial Biotransformation [2] | Bacterial Biotransformation [3] | Bacterial Biotransformation [4] | Bacterial Biotransformation [5] | Bacterial Biotransformation [6] | Bacterial Biotransformation [7] | Bacterial Biotransformation [8] | Bacterial Biotransformation [9] |
| --- | --- | --- | --- | --- | --- | --- | --- | --- | --- |
| CCCc1nc2c(C)cc(-c3nc4ccccc4n3C)cc2n1Cc1ccc(-c2ccccc2C(=O)O)cc1 | Compound metabolized | Compound metabolized | Compound metabolized | Compound metabolized | Compound metabolized | Compound metabolized | Compound metabolized | Compound metabolized | Compound metabolized |
| CCCCC(=O)N(Cc1ccc(-c2ccccc2-c2nnn[nH]2)cc1)[C@H](C(=O)O)C(C)C | Compound NOT metabolized | Compound NOT metabolized | Compound NOT metabolized | Compound NOT metabolized | Compound NOT metabolized | Compound metabolized | Compound metabolized | Compound metabolized | Compound metabolized |
| Cc1cc2c(cc1S(N)(=O)=O)S(=O)(=O)CCC2 | Compound NOT metabolized | Compound NOT metabolized | Compound NOT metabolized | Compound NOT metabolized | Compound NOT metabolized | Compound NOT metabolized | Compound NOT metabolized | Compound NOT metabolized | Compound NOT metabolized |
| CN1CCc2c(c3ccccc3n2Cc2ccccc2)C1.CN1CCc2c(c3ccccc3n2Cc2ccccc2)C1.O=S(=O)(O)c1cccc2c(S(=O)(=O)O)cccc12 | Compound metabolized | Compound metabolized | Compound NOT metabolized | Compound NOT metabolized | Compound NOT metabolized | Compound NOT metabolized | Compound metabolized | Compound NOT metabolized | Compound metabolized |
| CN1CC(=O)N2[C@H](c3ccc4c(c3)OCO4)c3[nH]c4ccccc4c3C[C@@H]2C1=O | Compound NOT metabolized | Compound metabolized | Compound NOT metabolized | Compound NOT metabolized | Compound metabolized | Compound metabolized | Compound metabolized | Compound NOT metabolized | Compound metabolized |
| COc1cc2nc(N(C)CCCNC(=O)C3CCCO3)nc(N)c2cc1OC (stereo unspecified) [ALFUZOSIN] | Compound NOT metabolized | Compound NOT metabolized | Compound NOT metabolized | Compound metabolized | Compound NOT metabolized | Compound metabolized | Compound metabolized | Compound NOT metabolized | Compound metabolized |
| NC12CC3CC(CC(C3)C1)C2 [AMANTADINE] | Compound metabolized | Compound NOT metabolized | Compound NOT metabolized | Compound NOT metabolized | Compound NOT metabolized | Compound NOT metabolized | Compound NOT metabolized | Compound NOT metabolized | Compound NOT metabolized |
| CC(C)(C#N)c1cc(Cn2cncn2)cc(C(C)(C)C#N)c1 [ANASTROZOLE] | Compound NOT metabolized | Compound metabolized | Compound NOT metabolized | Compound NOT metabolized | Compound NOT metabolized | Compound NOT metabolized | Compound metabolized | Compound NOT metabolized | Compound NOT metabolized |
| O=P(O)(O)O.c1ccc(CN(CC2=NCCN2)c2ccccc2)cc1 [ANTAZOLINE PHOSPHATE] | Compound NOT metabolized | Compound metabolized | Compound NOT metabolized | Compound NOT metabolized | Compound metabolized | Compound NOT metabolized | Compound NOT metabolized | Compound NOT metabolized | Compound NOT metabolized |
| CN1CCC(=C2c3ccccc3CCc3cccnc32)CC1.O=C(O)/C=C\C(=O)O.O=C(O)/C=C\C(=O)O [AZATADINE MALEATE] | Compound NOT metabolized | Compound NOT metabolized | Compound NOT metabolized | Compound NOT metabolized | Compound NOT metabolized | Compound NOT metabolized | Compound NOT metabolized | Compound NOT metabolized | Compound NOT metabolized |
| CC(=O)OCC(=O)[C@@]1(O)[C@@H](C)C[C@H]2[C@@H]3CCC4=CC(=O)C=C[C@]4(C)[C@@]3(F)[C@@H](O)C[C@@]21C [BETAMETHASONE ACETATE] | Compound metabolized | Compound metabolized | Compound metabolized | Compound metabolized | Compound NOT metabolized | Compound metabolized | Compound metabolized | Compound metabolized | Compound metabolized |
| CC(C)NCC(O)COc1ccc(CCOCC2CC2)cc1 (stereo unspecified) [BETAXOLOL] | Compound metabolized | Compound metabolized | Compound NOT metabolized | Compound NOT metabolized | Compound metabolized | Compound NOT metabolized | Compound NOT metabolized | Compound NOT metabolized | Compound NOT metabolized |
| CC(C)(Oc1ccc(CCNC(=O)c2ccc(Cl)cc2)cc1)C(=O)O [BEZAFIBRATE] | Compound NOT metabolized | Compound metabolized | Compound metabolized | Compound NOT metabolized | Compound NOT metabolized | Compound metabolized | Compound metabolized | Compound NOT metabolized | Compound metabolized |
| CC(O)(CS(=O)(=O)c1ccc(F)cc1)C(=O)Nc1ccc(C#N)c(C(F)(F)F)c1 (stereo unspecified) [BICALUTAMIDE] | Compound NOT metabolized | Compound NOT metabolized | Compound NOT metabolized | Compound NOT metabolized | Compound NOT metabolized | Compound NOT metabolized | Compound NOT metabolized | Compound NOT metabolized | Compound NOT metabolized |
